Structures are written as SMILES. Read-outs that look alike come from different tables or passages of the source.

These results are taken from patent US20230158025A1 (UNIVERSITY OF UTAH RESEARCH FOUNDATION, priority 2020, published 2023).

One data set addresses recombinant human GALK1 (Homo sapiens, UniProt P51570). Description: hGALK1 biochemical activity assay (Kinase-Glo Plus, ATP depletion). The essentials: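 Turnover is measured as ATP depletion by Kinase-Glo Plus luminescence after a 1 h room-temperature reaction. Compounds span 11 concentrations, 57.4 μM–0.97 nM, in final 20 mM HEPES pH 8.0 with 5 mM MgCl2. The substrate solution held 35 μM ATP; the added solution held 5 nM human or mouse GALK1 and 100 μM galactose.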
A general note: Kinase-Glo reads ATP consumption through a luciferase reaction.

The nature of data set [1]: rat microsomal stability (RLM).
The target of another data set is recombinant mouse GALK1 (Mus musculus, UniProt Q9R0N0). Description: mGALK1 biochemical activity assay (Kinase-Glo Plus, ATP depletion). The essentials:
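Recombinant GALK1 (5 nM) with 100 μM galactose; GALK1 turnover read as ATP depletion by Kinase-Glo Plus luminescence. Reaction ran 1 h at room temperature before detection reagent was added.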

Data set [2] is described as follows: aqueous kinetic solubility.
The mark [3] stands for this setting: recombinant human GALK1, Kinase-Glo Plus ATP depletion, read-out: hGALK.
Where [4] appears, read: recombinant mouse GALK1, Kinase-Glo Plus ATP depletion, read-out: mGALK.
Setting [5] is: Tables 2-15, 35 μM ATP, 100 μM galactose, 1 h, bracketed figure after some values (e.g. −1.2) is undefined and not reported, read-out: hGALK IC50.
[6] abbreviates: Tables 2-15, 35 μM ATP, 100 μM galactose, 1 h, bracketed figure after some values is undefined and not reported, read-out: mGALK IC50.
[7] abbreviates: recombinant human GALK1, Kinase-Glo Plus ATP depletion, bracketed figure in the cell, e.g. (−1.2), is not defined in the text shown, read-out: hGALK.
[8] abbreviates: microsomal stability half-life, minutes.
Setting [9] is: recombinant mouse GALK1, Kinase-Glo Plus ATP depletion, bracketed figure in the cell, e.g. (−1.2), is not defined in the text shown, read-out: mGALK.

Chain of recombinant human GALK1 (P51570 whole entry): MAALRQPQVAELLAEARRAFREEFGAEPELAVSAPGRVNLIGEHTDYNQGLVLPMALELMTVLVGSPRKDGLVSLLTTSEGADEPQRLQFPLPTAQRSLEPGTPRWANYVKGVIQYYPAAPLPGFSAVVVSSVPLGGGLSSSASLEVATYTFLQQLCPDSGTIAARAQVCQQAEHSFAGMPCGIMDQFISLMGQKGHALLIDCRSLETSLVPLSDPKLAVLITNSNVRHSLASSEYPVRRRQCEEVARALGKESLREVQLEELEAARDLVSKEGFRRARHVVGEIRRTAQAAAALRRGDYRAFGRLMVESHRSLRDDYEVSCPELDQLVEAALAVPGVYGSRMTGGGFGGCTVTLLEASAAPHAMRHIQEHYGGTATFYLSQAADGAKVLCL
Chain of recombinant mouse GALK1 (Q9R0N0 whole entry): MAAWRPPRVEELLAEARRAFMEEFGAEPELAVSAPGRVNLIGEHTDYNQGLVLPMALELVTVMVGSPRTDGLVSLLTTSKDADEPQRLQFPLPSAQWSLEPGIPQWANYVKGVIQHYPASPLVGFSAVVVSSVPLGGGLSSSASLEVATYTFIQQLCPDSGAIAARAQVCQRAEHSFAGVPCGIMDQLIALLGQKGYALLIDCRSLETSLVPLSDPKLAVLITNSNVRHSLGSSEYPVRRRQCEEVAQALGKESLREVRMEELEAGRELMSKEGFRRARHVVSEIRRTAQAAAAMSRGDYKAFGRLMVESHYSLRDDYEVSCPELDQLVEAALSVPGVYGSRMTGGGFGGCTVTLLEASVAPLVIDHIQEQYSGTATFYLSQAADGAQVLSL

Consider `COC(=O)c1ccc(NC(=O)C2=C(C)NC(Nc3nc4ccccc4o3)=NC2c2ccccc2Cl)cn1` (stereo not shown) [Compound 166, methyl 5-(2-(benzo[d]oxazol-2-ylamino)-4-(2-chlorophenyl)-6-methyl-1,4-dihydropyrimidine-5-carboxamido)picolinate], for which the figures for the IC50 at recombinant human GALK1 (setting [3]) and at recombinant mouse GALK1 (setting [4]) were 6.11 µM and 6.85 µM, respectively. Moreover, in “PAMPA permeability” (PAMPA), the “Perm. (1 × 10^−6 cm/sec)” value was 96.1 1 × 10^−6 cm/sec. In addition, the “Metab. Stabil. (m)” value in data set [1] (microsomal stability half-life) is recorded as 4.678 m. In data set [2] (aqueous kinetic solubility), the “Sol.” value was below 1 µg/mL.
Consider `COC(=O)c1cccc(NC(=O)C2=C(C)NC(Nc3nc4ccccc4o3)=NC2c2ccccc2Cl)n1` (stereo not shown) [Compound 197], for which the IC50 on recombinant human GALK1 (setting [5]) is 9.68 µM; at recombinant human GALK1 (setting [3]) it was 9.68 µM; on recombinant mouse GALK1 (setting [6]), 12.2 µM; at recombinant mouse GALK1 (setting [4]), 12.2 µM. Further, the “Perm. (1 × 10^−6 cm/sec)” value in “PAMPA permeability” (PAMPA) was 18.9 1 × 10^−6 cm/sec. Moreover, in data set [1] (microsomal stability half-life), the “Metab. Stabil. (m)” value was above 30 m. Moreover, the “Sol.” value in data set [2] (aqueous kinetic solubility) was below 1 µg/mL.
Take `CC1=C(C(=O)Nc2cccc(C(=O)O)n2)C(c2ccccc2Cl)N=C(Nc2nc3ccccc3o2)N1` (stereo not shown) [Compound 195, 6-(2-(benzo[d]oxazol-2-ylamino)-4-(2-chlorophenyl)-6-methyl-1,4-dihydropyrimidine-5-carboxamido)picolinic acid]: the IC50 at recombinant human GALK1 (setting [5]) came to 4.32 µM; at recombinant human GALK1 (setting [3]), 4.32 µM; at recombinant mouse GALK1 (setting [6]), 6.85 µM; on recombinant mouse GALK1 (setting [4]), 6.85 µM. Besides, the “Perm. (1 × 10^−6 cm/sec)” value in the data set “PAMPA permeability” (PAMPA) is <1 1 × 10^−6 cm/sec. In data set [1] (microsomal stability half-life), the “Metab. Stabil. (m)” value is above 30 m. For the same compound, the “Sol.” value in data set [2] (aqueous kinetic solubility) was 60.0 µg/mL.
Take `CC1=C(C(=O)Nc2ccc(C#N)cc2)C(c2ccccc2Cl)N=C(Nc2nc3ccccc3o2)N1` (stereo not shown) [Compound 189, 2-(benzo[d]oxazol-2-ylamino)-4-(2-chlorophenyl)-N-(4-cyanophenyl)-6-methyl-1,4-dihydropyrimidine-5-carboxamide]: the IC50 was 10.9 µM on recombinant human GALK1 (setting [5]), 10.9 µM at recombinant human GALK1 (setting [3]), 13.7 µM on recombinant mouse GALK1 (setting [6]) and 13.7 µM at recombinant mouse GALK1 (setting [4]). Moreover, in “PAMPA permeability” (PAMPA), the “Perm. (1 × 10^−6 cm/sec)” value was <18.7 1 × 10^−6 cm/sec. Moreover, the “Metab. Stabil. (m)” value in data set [1] (microsomal stability half-life) is 25.33 m. Besides, the “Sol.” value in data set [2] (aqueous kinetic solubility) is below 1 µg/mL.
As for `O/N=C1\CCCC2=C1C(c1ccccc1Cl)N=C(Nc1nc3ccccc3o1)N2` (stereo not shown) [Compound 244, (E)-2-(benzo[d]oxazol-2-ylamino)-4-(2-chlorophenyl)-4,6,7,8-tetrahydroquinazolin-5(1H)-one oxime], the IC50 stood at 17.2 µM at recombinant human GALK1 (setting [7]) and 10.9 µM at recombinant mouse GALK1 (setting [9]). Moreover, the “Perm. (1 × 10^−6 cm/sec)” value in “PAMPA permeability” (PAMPA) was 244.29 1 × 10^−6 cm/sec. In addition, the “Metab. Stabil. (m)” value in data set [1] (setting [8]) stood at 5.48 m. In addition, the “Sol.” value in data set [2] (aqueous kinetic solubility) is below 1 µg/mL.
Regarding `CC1=C(C(=O)Nc2cc(C(=O)O)ccn2)C(c2ccc(-c3cnc(C)nc3)cc2Cl)N=C(Nc2nc3ccc(F)cc3o2)N1` (stereo not shown) [Compound 71, 2-(4-(2-chloro-4-(2-methylpyrimidin-5-yl)phenyl)-2-((6-fluorobenzo[d]oxazol-2-yl)amino)-6-methyl-1,4-dihydropyrimidine-5-carboxamido)isonicotinic acid], the results for the IC50 on recombinant human GALK1 (setting [3]), at recombinant mouse GALK1 (setting [6]) and at recombinant mouse GALK1 (setting [4]) were 0.11 µM, 0.69 µM and 0.69 µM, respectively. Besides, the “Perm. (1 × 10^−6 cm/sec)” value in “PAMPA permeability” was <1 1 × 10^−6 cm/sec. Besides, in data set [1] (microsomal half-life), the “Metab. Stabil. (m)” value is reported as above 30 m. For the same compound, the “Sol.” value in data set [2] was above 90 µg/mL.
Regarding `COC(=O)c1cc(NC(=O)C2=C(C)NC(Nc3nc4ccccc4o3)=NC2c2ccccc2Cl)ccn1` (stereo not shown) [Compound 204, methyl 4-(2-(benzo[d]oxazol-2-ylamino)-4-(2-chlorophenyl)-6-methyl-1,4-dihydropyrimidine-5-carboxamido)picolinate], the IC50 worked out at 7.69 µM on recombinant human GALK1 (setting [5]), 7.69 µM on recombinant human GALK1 (setting [3]), 10.9 µM on recombinant mouse GALK1 (setting [6]) and 10.9 µM on recombinant mouse GALK1 (setting [4]). Also, the “Perm. (1 × 10^−6 cm/sec)” value in “PAMPA permeability” (PAMPA) was 49.2 1 × 10^−6 cm/sec. Also, the “Metab. Stabil. (m)” value in data set [1] (microsomal stability half-life) is listed as above 30 m. Also, the “Sol.” value in data set [2] (aqueous kinetic solubility) was below 1 µg/mL.
As to `COCCNC(=O)C1CC(=O)C2=C(C1)NC(Nc1nc3ccccc3o1)=NC2c1ccccc1Cl` (stereo not shown) [Compound 280, 2-(benzo[d]oxazol-2-ylamino)-4-(2-chlorophenyl)-N-(2-methoxyethyl)-5-oxo-1,4,5,6,7,8-hexahydroquinazoline-7-carboxamide], the IC50 at recombinant human GALK1 (setting [7]) and at recombinant mouse GALK1 (setting [9]) was 4.85 µM in each case. For the same compound, the “Perm. (1 × 10^−6 cm/sec)” value in the data set “PAMPA permeability” (PAMPA) is 747.27 1 × 10^−6 cm/sec. In addition, the “Metab. Stabil. (m)” value in data set [1] (setting [8]) came to 10.16 m. Further, the “Sol.” value in data set [2] (aqueous kinetic solubility) came to 4.23 µg/mL.
On to `CCn1cc(CNC(=O)C2=C(C)NC(Nc3nc4cccc(N)c4o3)=NC2c2ccc(C)cc2Cl)cn1` (stereo not shown) [Compound 117, 2-((7-aminobenzo[d]oxazol-2-yl)amino)-4-(2-chloro-4-methylphenyl)-6-methyl-N-((1-ethyl-1H-pyrazol-4-yl)methyl)-1,4-dihydropyrimidine-5-carboxamide], for which the IC50 at recombinant human GALK1 (setting [3]) was found to be 0.17 µM; at recombinant mouse GALK1 (setting [6]) it was 3.06 µM. In addition, in “PAMPA permeability”, the “Perm. (1 × 10^−6 cm/sec)” value is 360.4 1 × 10^−6 cm/sec. In addition, the “Metab. Stabil. (m)” value in data set [1] (microsomal half-life) is 11.3 m. The “Sol.” value in data set [2] was determined as 2.43 µg/mL.
With `CC1=C(C(=O)Nc2cc(C(=O)O)ccn2)C(c2ccccc2Cl)N=C(Nc2nc3c(N)cccc3o2)N1` (stereo not shown) [Compound 2, 2-(2-((4-aminobenzo[d]oxazol-2-yl)amino)-4-(2-chlorophenyl)-6-methyl-1,4-dihydropyrimidine-5-carboxamido)isonicotinic acid], the IC50 was 21.7 µM at recombinant human GALK1 (setting [3]), 30.6 µM on recombinant mouse GALK1 (setting [6]) and 30.6 µM at recombinant mouse GALK1 (setting [4]). Besides, the “Perm. (1 × 10^−6 cm/sec)” value in “PAMPA permeability” is on record as <1 1 × 10^−6 cm/sec. The “Metab. Stabil. (m)” value in data set [1] (microsomal half-life) is above 30 m. In addition, the “Sol.” value in data set [2] was above 76 µg/mL.
Regarding `CC1=C(C(=O)Nc2ccccc2CO)C(c2ccccc2Cl)N=C(Nc2nc3ccccc3o2)N1` (stereo not shown) [Compound 156, 2-(benzo[d]oxazol-2-ylamino)-4-(2-chlorophenyl)-N-(2-(hydroxymethyl)phenyl)-6-methyl-1,4-dihydropyrimidine-5-carboxamide], the IC50 was found to be 3.85 µM on recombinant human GALK1 (setting [3]), 17.2 µM on recombinant mouse GALK1 (setting [6]) and 17.2 µM at recombinant mouse GALK1 (setting [4]). For the same compound, the “Perm. (1 × 10^−6 cm/sec)” value in “PAMPA permeability” (PAMPA) is recorded as 1038.5 1 × 10^−6 cm/sec. Further, the “Metab. Stabil. (m)” value in data set [1] (microsomal stability half-life) is recorded as 7.708 m. Moreover, the “Sol.” value in data set [2] (aqueous kinetic solubility) is below 1 µg/mL.
Turning to `CC1=C(C(=O)Nc2cc(C(=O)O)ccn2)C(c2ccc(N3CCCCC3)cc2Cl)N=C(Nc2nc3ccc(F)cc3o2)N1` (stereo not shown) [Compound 58, 2-(4-(2-chloro-4-(piperidin-1-yl)phenyl)-2-((6-fluorobenzo[d]oxazol-2-yl)amino)-6-methyl-1,4-dihydropyrimidine-5-carboxamido)isonicotinic acid], the figures for the IC50 on recombinant human GALK1 (setting [5]), at recombinant mouse GALK1 (setting [6]) and at recombinant mouse GALK1 (setting [4]) were 1.22 µM, 12.2 µM and 12.2 µM, respectively. Besides, the “Perm. (1 × 10^−6 cm/sec)” value in the data set “PAMPA permeability” is given as 1.35 1 × 10^−6 cm/sec. Besides, the “Metab. Stabil. (m)” value in data set [1] (microsomal half-life) is reported as above 30 m. In data set [2], the “Sol.” value amounted to 1.92 µg/mL.
In the case of `CC1=C(C(=O)Nc2cc(C(=O)O)ccn2)C(c2ccc(C(F)(F)F)cc2Cl)N=C(Nc2nc3ccc(F)cc3o2)N1` (stereo not shown) [Compound 61, 2-(4-(2-chloro-4-(trifluoromethyl)phenyl)-2-((6-fluorobenzo[d]oxazol-2-yl)amino)-6-methyl-1,4-dihydropyrimidine-5-carboxamido)isonicotinic acid], the IC50 on recombinant human GALK1 (setting [5]) is 1.53 µM; on recombinant human GALK1 (setting [3]) it was 1.53 µM; on recombinant mouse GALK1 (setting [6]) it was 10.9 µM; on recombinant mouse GALK1 (setting [4]), 10.9 µM. In the data set “PAMPA permeability”, the “Perm. (1 × 10^−6 cm/sec)” value is reported as <1 1 × 10^−6 cm/sec. Besides, the “Metab. Stabil. (m)” value in data set [1] (microsomal half-life) is given as above 30 m. For the same compound, the “Sol.” value in data set [2] stood at 19.4 µg/mL.
